The text below walks through data of EP1897937A1, “Method of culturing NPCs” (NeuroProgen GmbH Leipzig, priority 2006, dated 2008).

This test relates to hmNPCs. Kind of test: Protein content of cell extracts (Bradford method). Type of test: cell-based. The following applies: Homo sapiens, 336 h, 2 weeks of expansion, read-out: protein yield compared to untreated samples. As to the method:
To determine long-term proliferation, hmNPCs were plated and expanded for 2 passages with or without addition of various agents (see below) to the custom expansion media containing the growth factors EGF and FGF2. Different fetal midbrain tissues were included in this study. At the end of the proliferation period, differentiation of hmNPCs was induced via replacement of expansion media with mitogen-free media containing 1% FCS, 5 µM forskoline (Sigma-Aldrich Chemie GmbH Munich, Germany), and 100 pg/ml IL-1β (Sigma). The differentiation and expansion media were supplemented with different drugs as appropriate. Prior to immunocytochemistry or protein extraction, hmNPCs were allowed to differentiate for 1 week. To determine short-term proliferation via Ki67 immunostaining, the cells were seeded into 24-well plates (70,000 cells/well) and left overnight to rest. P2 receptor agonists (ATP, UTP, ATP + UTP, ADP, ADPβS) were supplied daily for 5 consecutive days. Ki67/nestin double-positive cells were counted in 8 randomly selected fields of nucleotide-treated or untreated samples. For the assessment of MAPK phosphorylation the cells were kept free of mitogens for 2 d prior to addition of the MEK-inhibitor in expansion media. In addition, the MEK-inhibitor was added during the differentiation period 15 min before UTP administration.
In order to prepare protein extracts, hmNPCs were collected, washed with ice-cold PBS and lysed in buffer [10 mM HEPES-KOH (pH 7.9), 10 mM KCI, 1.5 mM MgCl2, 0.1% NP-40], supplemented with protease inhibitor cocktail (Roche). After a brief centrifugation at 4°C/10 000×g, protein concentrations and protein yield from extracts were determined using the Bradford method (Bio-Rad, Hercules, CA, USA). To preserve the phosphorylation state of proteins, extracts for the MAPK experiment were obtained using the PhosphoSafe™ extraction reagent containing phophatase inhibitors (Novagen). […] The chemiluminescence was quantified using the AIDA, two-dimensional densitometry software (Raytest lsotopenmeb, Straubenhardt, Germany). […]

As to `O=c1ccn([C@@H]2O[C@H](COP(=O)(O)OP(=O)(O)OP(=O)(O)O)[C@@H](O)[C@H]2O)c(=O)[nH]1` [UTP, uridine 5'-triphosphate], the activity at 1 µM (1 µM) came to 165%. In addition, the activity at 10 µM (10 µM) was 125%. Also, the activity at 100 µM (100 µM) was found to be 113%.
